{"source": "patent EP0068324A2", "about": "“Microcapsule preparation for reducing increased intracranial pressure and a process for preparing the same” (Tanabe Seiyaku Co., Ltd., priority 1981, dated 1983)", "assay": "in vivo", "details": "mouse, po, mice, orally administered, measured one week after administration", "excerpt": "The microcapsule preparation containing a propanol derivative of the present invention can reduce the intracranial pressure in an extremely small amount, which may be by a different mechanism from the hyperosmolar dehydrating effect by the known intravenous injection of a large amount of hypertonic solution, and the therapeutic effect is large and durable without showing any side effect such as a rebound increase of the intracranial pressure. The propanol derivative (I) of the present invention is low toxic and highly safeful.", "data": [{"molecule": "COc1cc(NC(C)=O)ccc1OCC(O)CN1CCN(c2cccc(F)c2)CC1", "note": "(stereo not shown) [1-(4-Acetamido-2-methoxyphenoxy)-3-[4-(3-fluorophenyl)piperazino]-2-propanol]", "values": [{"measurement": "LD50 at 168 h", "value": "~1500", "unit": "mg/kg"}]}]}
